Reference: the kinase profiling compilation of Christmann-Franck et al. (2016)

What was measured:
Assay in all cases: radiometric filter-binding kinase assay
NEK2 (human) = NEK2 (human) (UniProt P51955)
BTK (human) = BTK (human) (UniProt Q06187)
RPS6KA1 KD1 KD2 (human) = RPS6KA1 KD1 KD2 (human) (UniProt Q15418)
PRKACA (human) = PRKACA (human) (UniProt P17612)
RPS6KA3 KD1 KD2 (human) = RPS6KA3 KD1 KD2 (human) (UniProt P51812)
CHEK2 (human) = CHEK2 (human) (UniProt O96017)
MAPK1 (human) = MAPK1 (human) (UniProt P28482)
[1] = tested on: RPS6KB1 (human), P23443 [T412E]
PRKAA1 or PRKAA2 (rat) = conditions: accession and sequence are those of the human protein
RPS6KA5 KD1 KD2 (human) = RPS6KA5 KD1 KD2 (human) (UniProt O75582)
MAPK3 (human) = MAPK3 (human) (UniProt P27361)
MAPK3 (human), sequence (P27361 whole entry, looked up): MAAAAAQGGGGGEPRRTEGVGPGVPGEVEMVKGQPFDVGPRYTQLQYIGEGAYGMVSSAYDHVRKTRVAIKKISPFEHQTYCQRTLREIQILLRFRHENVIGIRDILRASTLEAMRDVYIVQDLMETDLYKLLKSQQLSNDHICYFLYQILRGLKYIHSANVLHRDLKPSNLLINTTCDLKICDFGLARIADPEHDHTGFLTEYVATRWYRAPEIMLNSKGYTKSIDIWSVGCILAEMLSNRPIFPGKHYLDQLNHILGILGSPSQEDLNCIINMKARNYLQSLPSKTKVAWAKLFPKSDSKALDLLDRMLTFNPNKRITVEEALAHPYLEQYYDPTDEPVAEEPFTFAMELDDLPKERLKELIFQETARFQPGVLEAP

PAK7 (human) = PAK7 (human) (UniProt Q9P286)
IKBKE (human) = IKBKE (human) (UniProt Q14164)
TTK (human) = TTK (human) (UniProt P33981)
[2] = tested on: AKT2 (human), P31751 [S474D]
INSRR (human) = INSRR (human) (UniProt P14616)
CSK (human) = CSK (human) (UniProt P41240)
CSK (human), sequence (P41240 whole entry, looked up): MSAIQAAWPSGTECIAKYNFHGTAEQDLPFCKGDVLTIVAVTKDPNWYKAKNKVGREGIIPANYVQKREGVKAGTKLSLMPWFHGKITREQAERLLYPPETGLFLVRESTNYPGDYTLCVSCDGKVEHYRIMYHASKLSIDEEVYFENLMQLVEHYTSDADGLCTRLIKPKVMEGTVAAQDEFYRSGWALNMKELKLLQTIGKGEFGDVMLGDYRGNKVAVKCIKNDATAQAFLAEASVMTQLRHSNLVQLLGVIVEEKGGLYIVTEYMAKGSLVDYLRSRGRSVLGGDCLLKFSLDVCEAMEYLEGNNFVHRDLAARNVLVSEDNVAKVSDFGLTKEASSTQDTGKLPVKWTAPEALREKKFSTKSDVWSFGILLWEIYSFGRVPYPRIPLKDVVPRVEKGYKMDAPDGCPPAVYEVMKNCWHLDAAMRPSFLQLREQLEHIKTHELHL

EPHA4 (human) = EPHA4 (human) (UniProt P54764)
MAPKAPK3 (human) = MAPKAPK3 (human) (UniProt Q16644)
SYK (human) = SYK (human) (UniProt P43405)
CSNK1D (human) = CSNK1D (human) (UniProt P48730)
FLT1 (human) = FLT1 (human) (UniProt P17948)
FLT1 (human), sequence (P17948 whole entry, looked up): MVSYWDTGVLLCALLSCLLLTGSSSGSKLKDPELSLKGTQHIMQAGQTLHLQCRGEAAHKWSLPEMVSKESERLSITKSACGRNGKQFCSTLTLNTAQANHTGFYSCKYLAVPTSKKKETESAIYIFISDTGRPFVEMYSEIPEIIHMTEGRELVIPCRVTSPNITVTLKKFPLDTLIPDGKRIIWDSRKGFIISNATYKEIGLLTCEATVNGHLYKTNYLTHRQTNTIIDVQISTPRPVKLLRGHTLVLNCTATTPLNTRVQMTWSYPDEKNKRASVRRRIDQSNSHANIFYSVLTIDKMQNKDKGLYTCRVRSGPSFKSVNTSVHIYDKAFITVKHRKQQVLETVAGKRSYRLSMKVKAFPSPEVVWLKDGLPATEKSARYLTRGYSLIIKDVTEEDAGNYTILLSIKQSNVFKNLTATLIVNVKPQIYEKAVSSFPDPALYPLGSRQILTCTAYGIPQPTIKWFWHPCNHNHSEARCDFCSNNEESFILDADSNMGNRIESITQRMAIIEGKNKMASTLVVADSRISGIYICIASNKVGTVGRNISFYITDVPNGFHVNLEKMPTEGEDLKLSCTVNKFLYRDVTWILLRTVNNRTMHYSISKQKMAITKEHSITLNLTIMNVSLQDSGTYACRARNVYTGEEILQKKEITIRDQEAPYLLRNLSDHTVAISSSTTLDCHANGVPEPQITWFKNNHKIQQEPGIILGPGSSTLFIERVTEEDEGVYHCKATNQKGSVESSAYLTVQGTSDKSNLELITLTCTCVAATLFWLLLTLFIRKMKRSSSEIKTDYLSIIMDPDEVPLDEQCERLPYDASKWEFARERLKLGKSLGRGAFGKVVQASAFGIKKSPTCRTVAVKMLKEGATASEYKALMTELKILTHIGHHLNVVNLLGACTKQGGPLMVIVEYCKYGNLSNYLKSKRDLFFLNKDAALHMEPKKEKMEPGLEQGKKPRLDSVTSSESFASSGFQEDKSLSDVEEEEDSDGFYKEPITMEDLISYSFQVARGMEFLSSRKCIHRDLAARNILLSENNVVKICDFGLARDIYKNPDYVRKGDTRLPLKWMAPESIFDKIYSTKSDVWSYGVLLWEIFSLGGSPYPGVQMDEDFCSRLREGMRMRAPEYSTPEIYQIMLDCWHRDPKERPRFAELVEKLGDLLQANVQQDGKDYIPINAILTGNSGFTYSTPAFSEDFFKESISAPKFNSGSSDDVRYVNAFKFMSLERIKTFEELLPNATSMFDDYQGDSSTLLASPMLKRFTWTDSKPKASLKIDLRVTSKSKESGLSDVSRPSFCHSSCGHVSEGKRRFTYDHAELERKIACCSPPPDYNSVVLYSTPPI

MAP2K1 (human) = MAP2K1 (human) (UniProt Q02750)
MKNK2 (human) = MKNK2 (human) (UniProt Q9HBH9)
MKNK2 (human), sequence (Q9HBH9 whole entry, looked up): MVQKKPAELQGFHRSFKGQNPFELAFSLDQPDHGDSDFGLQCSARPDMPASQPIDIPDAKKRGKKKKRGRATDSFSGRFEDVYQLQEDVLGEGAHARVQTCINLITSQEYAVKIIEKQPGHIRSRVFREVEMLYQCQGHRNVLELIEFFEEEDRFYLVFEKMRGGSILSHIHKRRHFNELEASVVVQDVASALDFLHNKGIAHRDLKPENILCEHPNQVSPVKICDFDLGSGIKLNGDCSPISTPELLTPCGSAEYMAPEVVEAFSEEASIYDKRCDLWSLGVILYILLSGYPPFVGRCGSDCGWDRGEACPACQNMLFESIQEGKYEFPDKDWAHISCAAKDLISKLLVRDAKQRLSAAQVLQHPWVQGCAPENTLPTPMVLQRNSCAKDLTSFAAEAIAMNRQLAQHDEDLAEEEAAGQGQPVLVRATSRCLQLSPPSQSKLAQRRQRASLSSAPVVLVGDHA

RIPK2 (human) = RIPK2 (human) (UniProt O43353)
MAPK15 (human) = MAPK15 (human) (UniProt Q8TD08)
MAPK15 (human), sequence (Q8TD08 whole entry, looked up): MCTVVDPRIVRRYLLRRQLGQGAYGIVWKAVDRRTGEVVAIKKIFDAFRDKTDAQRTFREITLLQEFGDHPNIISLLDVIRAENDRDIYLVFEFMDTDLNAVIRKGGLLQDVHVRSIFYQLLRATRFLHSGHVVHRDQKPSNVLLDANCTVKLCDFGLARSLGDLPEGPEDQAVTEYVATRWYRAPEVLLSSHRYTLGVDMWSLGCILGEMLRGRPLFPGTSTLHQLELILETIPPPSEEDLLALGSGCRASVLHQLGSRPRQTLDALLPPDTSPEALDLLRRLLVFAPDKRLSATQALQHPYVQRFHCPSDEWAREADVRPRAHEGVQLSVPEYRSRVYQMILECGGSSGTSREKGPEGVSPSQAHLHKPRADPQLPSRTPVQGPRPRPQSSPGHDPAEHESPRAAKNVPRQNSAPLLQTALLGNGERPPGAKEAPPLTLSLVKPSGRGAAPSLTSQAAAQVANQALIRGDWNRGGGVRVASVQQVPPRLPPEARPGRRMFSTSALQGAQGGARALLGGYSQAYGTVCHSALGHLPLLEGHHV

NEK6 (human) = NEK6 (human) (UniProt Q9HC98)
CDK2 CCNA2 (human) = CDK2 CCNA2 (human) (UniProt P20248+P24941)
PIM2 (human) = PIM2 (human) (UniProt Q9P1W9)
SRC (human) = SRC (human) (UniProt P12931)
MAPK14 (human) = MAPK14 (human) (UniProt Q16539)
PLK1 (human) = PLK1 (human) (UniProt P53350)
EPHB1 (human) = EPHB1 (human) (UniProt P54762)
IKBKB (human) = IKBKB (human) (UniProt O14920)
EPHB4 (human) = EPHB4 (human) (UniProt P54760)

NEK2 (human), sequence (P51955 whole entry, looked up): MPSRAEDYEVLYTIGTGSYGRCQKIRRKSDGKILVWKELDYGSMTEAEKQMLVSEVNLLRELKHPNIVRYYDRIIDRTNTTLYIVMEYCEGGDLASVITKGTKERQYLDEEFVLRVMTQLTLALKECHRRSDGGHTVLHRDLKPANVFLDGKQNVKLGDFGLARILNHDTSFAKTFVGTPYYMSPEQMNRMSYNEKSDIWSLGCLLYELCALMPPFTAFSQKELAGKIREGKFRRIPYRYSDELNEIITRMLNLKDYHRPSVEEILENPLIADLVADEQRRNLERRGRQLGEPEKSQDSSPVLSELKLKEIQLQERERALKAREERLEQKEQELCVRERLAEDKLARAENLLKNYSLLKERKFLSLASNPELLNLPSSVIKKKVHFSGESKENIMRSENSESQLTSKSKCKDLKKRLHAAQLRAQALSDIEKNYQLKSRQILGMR
BTK (human), sequence (Q06187 whole entry, looked up): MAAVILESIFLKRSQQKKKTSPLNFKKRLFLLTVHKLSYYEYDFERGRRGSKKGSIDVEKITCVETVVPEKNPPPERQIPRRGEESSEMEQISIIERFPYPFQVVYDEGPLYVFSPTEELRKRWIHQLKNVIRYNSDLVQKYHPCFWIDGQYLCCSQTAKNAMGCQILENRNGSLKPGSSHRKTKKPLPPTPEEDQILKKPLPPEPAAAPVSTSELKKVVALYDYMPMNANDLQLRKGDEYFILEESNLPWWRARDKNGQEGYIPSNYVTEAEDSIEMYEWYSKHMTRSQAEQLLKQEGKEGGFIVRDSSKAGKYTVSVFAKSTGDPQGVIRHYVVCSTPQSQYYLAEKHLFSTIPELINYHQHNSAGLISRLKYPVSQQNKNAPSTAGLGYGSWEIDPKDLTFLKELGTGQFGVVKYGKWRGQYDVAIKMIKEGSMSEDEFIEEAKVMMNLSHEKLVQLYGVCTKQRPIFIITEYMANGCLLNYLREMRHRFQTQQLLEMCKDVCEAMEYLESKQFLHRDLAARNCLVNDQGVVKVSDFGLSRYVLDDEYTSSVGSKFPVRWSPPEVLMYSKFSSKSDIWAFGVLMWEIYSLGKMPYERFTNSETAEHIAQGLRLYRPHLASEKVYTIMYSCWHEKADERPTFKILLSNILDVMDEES
RPS6KA3 KD1 KD2 (human), sequence (P51812 whole entry, looked up): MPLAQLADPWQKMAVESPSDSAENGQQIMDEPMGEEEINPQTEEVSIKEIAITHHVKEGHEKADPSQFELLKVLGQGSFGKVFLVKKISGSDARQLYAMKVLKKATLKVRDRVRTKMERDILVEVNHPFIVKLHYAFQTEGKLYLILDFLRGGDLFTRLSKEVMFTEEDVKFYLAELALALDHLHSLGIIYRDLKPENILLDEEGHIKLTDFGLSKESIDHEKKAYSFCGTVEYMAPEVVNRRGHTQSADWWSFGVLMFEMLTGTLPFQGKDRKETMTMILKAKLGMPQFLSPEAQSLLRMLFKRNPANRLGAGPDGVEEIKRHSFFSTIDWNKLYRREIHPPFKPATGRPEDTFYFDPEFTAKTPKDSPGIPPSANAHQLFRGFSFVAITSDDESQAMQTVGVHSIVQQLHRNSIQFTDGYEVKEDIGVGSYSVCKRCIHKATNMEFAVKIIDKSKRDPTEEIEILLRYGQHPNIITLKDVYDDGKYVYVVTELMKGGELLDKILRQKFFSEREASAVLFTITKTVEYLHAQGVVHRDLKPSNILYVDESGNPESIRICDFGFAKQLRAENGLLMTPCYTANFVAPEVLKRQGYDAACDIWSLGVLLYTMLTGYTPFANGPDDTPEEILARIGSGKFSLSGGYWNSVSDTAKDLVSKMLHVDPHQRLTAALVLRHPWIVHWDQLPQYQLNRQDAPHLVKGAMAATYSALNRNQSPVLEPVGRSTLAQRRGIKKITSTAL

**Q.** Which results are given for `Oc1ccc2ccccc2c1SSc1c(O)ccc2ccccc12`?
**A.** residual activity (NEK2 (human); compound 1.0 µM): 10%; residual activity (NEK2 (human); compound 5.0 µM): 8%; residual activity (NEK2 (human); compound 10.0 µM): 54%; residual activity (BTK (human); compound 1.0 µM): 28%; residual activity (BTK (human); compound 5.0 µM): 19%; residual activity (BTK (human); compound 10.0 µM): 27%; residual activity (RPS6KA1 KD1 KD2 (human); compound 1.0 µM): 78%; residual activity (RPS6KA1 KD1 KD2 (human); compound 5.0 µM): 62%; residual activity (PRKACA (human); compound 1.0 µM): 101%; residual activity (PRKACA (human); compound 5.0 µM): 92%; residual activity (PRKACA (human); compound 10.0 µM): 100%; residual activity (RPS6KA3 KD1 KD2 (human); compound 1.0 µM): 12%; residual activity (RPS6KA3 KD1 KD2 (human); compound 5.0 µM): 6%; residual activity (RPS6KA3 KD1 KD2 (human); compound 10.0 µM): 6%; residual activity (CHEK2 (human); compound 1.0 µM): 58%; residual activity (CHEK2 (human); compound 5.0 µM): 34%; residual activity (CHEK2 (human); compound 10.0 µM): 94%; residual activity (MAPK1 (human); compound 1.0 µM): 56%; residual activity (MAPK1 (human); compound 5.0 µM): 39%; residual activity (MAPK1 (human); compound 10.0 µM): 101%; residual activity ([1]; compound 1.0 µM): 56%; residual activity ([1]; compound 5.0 µM): 14%; residual activity ([1]; compound 10.0 µM): 3%; residual activity (PRKAA1 or PRKAA2 (rat); compound 1.0 µM): 55%; residual activity (PRKAA1 or PRKAA2 (rat); compound 5.0 µM): 27%; residual activity (PRKAA1 or PRKAA2 (rat); compound 10.0 µM): 90%; residual activity (RPS6KA5 KD1 KD2 (human); compound 1.0 µM): 79%; residual activity (RPS6KA5 KD1 KD2 (human); compound 5.0 µM): 65%; residual activity (RPS6KA5 KD1 KD2 (human); compound 10.0 µM): 101%; residual activity (MAPK3 (human); compound 1.0 µM): 9%; residual activity (MAPK3 (human); compound 5.0 µM): 6%; residual activity (MAPK3 (human); compound 10.0 µM): 8%; residual activity (PAK7 (human); compound 1.0 µM): 99%; residual activity (PAK7 (human); compound 5.0 µM): 49%; residual activity (PAK7 (human); compound 10.0 µM): 121%; residual activity (IKBKE (human); compound 1.0 µM): 7%; residual activity (IKBKE (human); compound 5.0 µM): 4%; residual activity (IKBKE (human); compound 10.0 µM): 70%; residual activity (TTK (human); compound 1.0 µM): 68%; residual activity (TTK (human); compound 5.0 µM): 40%; residual activity ([2]; compound 1.0 µM): 1%; residual activity ([2]; compound 5.0 µM): 0%; residual activity ([2]; compound 10.0 µM): 0%; residual activity (INSRR (human); compound 1.0 µM): 84%; residual activity (INSRR (human); compound 5.0 µM): 47%; residual activity (INSRR (human); compound 10.0 µM): 83%; residual activity (CSK (human); compound 1.0 µM): 102%; residual activity (CSK (human); compound 5.0 µM): 109%; residual activity (CSK (human); compound 10.0 µM): 99%; residual activity (EPHA4 (human); compound 1.0 µM): 98%; residual activity (EPHA4 (human); compound 5.0 µM): 89%; residual activity (MAPKAPK3 (human); compound 1.0 µM): 26%; residual activity (MAPKAPK3 (human); compound 5.0 µM): 10%; residual activity (SYK (human); compound 1.0 µM): 77%; residual activity (SYK (human); compound 5.0 µM): 12%; residual activity (SYK (human); compound 10.0 µM): 92%; residual activity (CSNK1D (human); compound 1.0 µM): 96%; residual activity (CSNK1D (human); compound 5.0 µM): 94%; residual activity (FLT1 (human); compound 1.0 µM): 6%; residual activity (FLT1 (human); compound 5.0 µM): 4%; residual activity (FLT1 (human); compound 10.0 µM): 47%; residual activity (MAP2K1 (human); compound 1.0 µM): 85%; residual activity (MAP2K1 (human); compound 5.0 µM): 18%; residual activity (MAP2K1 (human); compound 10.0 µM): 96%; residual activity (MKNK2 (human); compound 1.0 µM): 97%; residual activity (MKNK2 (human); compound 5.0 µM): 78%; residual activity (MKNK2 (human); compound 10.0 µM): 87%; residual activity (RIPK2 (human); compound 1.0 µM): 117%; residual activity (RIPK2 (human); compound 5.0 µM): 114%; residual activity (MAPK15 (human); compound 1.0 µM): 2%; residual activity (MAPK15 (human); compound 5.0 µM): 1%; residual activity (MAPK15 (human); compound 10.0 µM): 49%; residual activity (NEK6 (human); compound 1.0 µM): 34%; residual activity (NEK6 (human); compound 5.0 µM): 11%; residual activity (NEK6 (human); compound 10.0 µM): 65%; residual activity (CDK2 CCNA2 (human); compound 1.0 µM): 101%; residual activity (CDK2 CCNA2 (human); compound 5.0 µM): 106%; residual activity (CDK2 CCNA2 (human); compound 10.0 µM): 88%; residual activity (PIM2 (human); compound 1.0 µM): 65%; residual activity (PIM2 (human); compound 5.0 µM): 21%; residual activity (PIM2 (human); compound 10.0 µM): 81%; residual activity (SRC (human); compound 1.0 µM): 42%; residual activity (SRC (human); compound 5.0 µM): 17%; residual activity (SRC (human); compound 10.0 µM): 89%; residual activity (MAPK14 (human); compound 1.0 µM): 80%; residual activity (MAPK14 (human); compound 5.0 µM): 68%; residual activity (MAPK14 (human); compound 10.0 µM): 83%; residual activity (PLK1 (human); compound 1.0 µM): 90%; residual activity (PLK1 (human); compound 5.0 µM): 12%; residual activity (PLK1 (human); compound 10.0 µM): 9%; residual activity (EPHB1 (human); compound 1.0 µM): 118%; residual activity (EPHB1 (human); compound 5.0 µM): 102%; residual activity (IKBKB (human); compound 1.0 µM): 33%; residual activity (IKBKB (human); compound 5.0 µM): 6%; residual activity (IKBKB (human); compound 10.0 µM): 68%; residual activity (EPHB4 (human); compound 1.0 µM): 109%; residual activity (EPHB4 (human); compound 5.0 µM): 119%

**Q.** What does the source list for `Cc1ccc(=O)n(-c2ccccc2)c1`?
**A.** residual activity (NEK2 (human); compound 1.0 µM): 107%; residual activity (NEK2 (human); compound 10.0 µM): 95%; residual activity (BTK (human); compound 1.0 µM): 119%; residual activity (BTK (human); compound 10.0 µM): 115%; residual activity (RPS6KA1 KD1 KD2 (human); compound 1.0 µM): 107%; residual activity (RPS6KA1 KD1 KD2 (human); compound 10.0 µM): 114%; residual activity (PRKACA (human); compound 1.0 µM): 90%; residual activity (PRKACA (human); compound 10.0 µM): 97%; residual activity (RPS6KA3 KD1 KD2 (human); compound 1.0 µM): 98%; residual activity (RPS6KA3 KD1 KD2 (human); compound 10.0 µM): 94%; residual activity (CHEK2 (human); compound 1.0 µM): 119%; residual activity (CHEK2 (human); compound 10.0 µM): 97%; residual activity (MAPK1 (human); compound 1.0 µM): 95%; residual activity (MAPK1 (human); compound 10.0 µM): 97%; residual activity ([1]; compound 1.0 µM): 115%; residual activity ([1]; compound 10.0 µM): 111%; residual activity (PRKAA1 or PRKAA2 (rat); compound 1.0 µM): 99%; residual activity (PRKAA1 or PRKAA2 (rat); compound 10.0 µM): 103%; residual activity (RPS6KA5 KD1 KD2 (human); compound 1.0 µM): 98%; residual activity (RPS6KA5 KD1 KD2 (human); compound 10.0 µM): 95%; residual activity (MAPK3 (human); compound 1.0 µM): 125%; residual activity (MAPK3 (human); compound 10.0 µM): 115%; residual activity (PAK7 (human); compound 1.0 µM): 88%; residual activity (PAK7 (human); compound 10.0 µM): 96%; residual activity (IKBKE (human); compound 1.0 µM): 104%; residual activity (IKBKE (human); compound 10.0 µM): 99%; residual activity (TTK (human); compound 1.0 µM): 73%; residual activity (TTK (human); compound 10.0 µM): 76%; residual activity ([2]; compound 1.0 µM): 99%; residual activity ([2]; compound 10.0 µM): 91%; residual activity (INSRR (human); compound 1.0 µM): 104%; residual activity (INSRR (human); compound 10.0 µM): 99%; residual activity (CSK (human); compound 1.0 µM): 98%; residual activity (CSK (human); compound 10.0 µM): 87%; residual activity (EPHA4 (human); compound 1.0 µM): 106%; residual activity (EPHA4 (human); compound 10.0 µM): 99%; residual activity (MAPKAPK3 (human); compound 1.0 µM): 92%; residual activity (MAPKAPK3 (human); compound 10.0 µM): 84%; residual activity (SYK (human); compound 1.0 µM): 99%; residual activity (SYK (human); compound 10.0 µM): 103%; residual activity (CSNK1D (human); compound 1.0 µM): 97%; residual activity (CSNK1D (human); compound 10.0 µM): 102%; residual activity (FLT1 (human); compound 1.0 µM): 100%; residual activity (FLT1 (human); compound 10.0 µM): 107%; residual activity (MAP2K1 (human); compound 1.0 µM): 77%; residual activity (MAP2K1 (human); compound 10.0 µM): 65%; residual activity (MKNK2 (human); compound 1.0 µM): 90%; residual activity (MKNK2 (human); compound 10.0 µM): 93%; residual activity (RIPK2 (human); compound 1.0 µM): 86%; residual activity (RIPK2 (human); compound 10.0 µM): 87%; residual activity (MAPK15 (human); compound 1.0 µM): 95%; residual activity (MAPK15 (human); compound 10.0 µM): 86%; residual activity (NEK6 (human); compound 1.0 µM): 99%; residual activity (NEK6 (human); compound 10.0 µM): 91%; residual activity (CDK2 CCNA2 (human); compound 1.0 µM): 103%; residual activity (CDK2 CCNA2 (human); compound 10.0 µM): 97%; residual activity (PIM2 (human); compound 1.0 µM): 118%; residual activity (PIM2 (human); compound 10.0 µM): 96%; residual activity (SRC (human); compound 1.0 µM): 123%; residual activity (SRC (human); compound 10.0 µM): 102%; residual activity (MAPK14 (human); compound 1.0 µM): 102%; residual activity (MAPK14 (human); compound 10.0 µM): 83%; residual activity (PLK1 (human); compound 1.0 µM): 96%; residual activity (PLK1 (human); compound 10.0 µM): 82%; residual activity (EPHB1 (human); compound 10.0 µM): 104%; residual activity (IKBKB (human); compound 1.0 µM): 87%; residual activity (IKBKB (human); compound 10.0 µM): 88%; residual activity (EPHB4 (human); compound 1.0 µM): 112%; residual activity (EPHB4 (human); compound 10.0 µM): 120%
